Patent publication US7655650B2, “Oxadiazine derivatives” (Syngenta Corporation, priority 1992, dated 2010)

Key:
Type in all cases: in vivo
Diabrotica balteata = assay: Example B5: Activity against Diabrotica balteata; conditions: 144 h, 400 ppm spray on maize seedlings, 10 larvae in the second stage, evaluated after 6 days, read-out: percentage reduction in population (% activity)
Description: Maize seedlings are sprayed with an aqueous emulsion spray mixture comprising 400 ppm of active ingredient. After the spray coating has dried on, the seedlings are populated with 10 Diabrotica balteata larvae in the second stage and transferred to a plastic container. The test is evaluated after 6 days. The percentage reduction in population (% activity) is determined by comparing the number of dead larvae between the treated and untreated plants.

Heliothis virescens = assay: Example B6: Activity against Heliothis virescens; conditions: 144 h, 400 ppm spray on young soyabean plants, 10 caterpillars in the first stage, evaluated after 6 days, read-out: percentage reduction in population and in feeding damage (% activity)
Description: Young soyabean plants are sprayed with an aqueous emulsion spray mixture comprising 400 ppm of active ingredient. After the spray coating has dried on, the plants are populated with 10 Heliothis virescens caterpillars in the first stage and transferred to a plastic container. The test is evaluated after 6 days. The percentage reduction in population and in feeding damage (% activity) are determined by comparing the number of dead caterpillars and the feeding damage between the treated and untreated plants.

Anthonomus grandis = assay: Example B1: Activity against Anthonomus grandis; conditions: 72 h, 400 ppm spray on young cotton plants, 10 adult beetles, evaluated after 3 days, read-out: percentage reduction in population and percentage reduction in feeding damage (% activity)
Description: Young cotton plants are sprayed with an aqueous emulsion spray mixture comprising 400 ppm of active ingredient. After the spray coating has dried on, the plants are populated with 10 adult Anthonomus grandis and placed into a plastic container. 3 days later, the test is evaluated. The percentage reduction in population and the percentage reduction in feeding damage (% activity) are determined by comparing the number of dead beetles and the feeding damage between the treated and the untreated plants.

Nephotettix cincticeps = assay: Example B10: Activity against Nephotettix cincticeps; conditions: 504 h, 400 ppm spray on rice plants, larvae in the 2nd and 3rd stages, evaluated after 21 days, read-out: percentage reduction in population (% activity)
Description: Rice plants are sprayed with an aqueous emulsion spray mixture comprising 400 ppm of active ingredient. After the spray coating has dried on, the plants are populated with larvae in the 2nd and 3rd stages. The test is evaluated after 21 days. The percentage reduction in population (% activity) is determined by comparing the number of surviving leaf hoppers on the treated and untreated, plants.

Ctenocephalides felis = assay: Example B4: Activity against Ctenocephalides felis (systemic); conditions: 5 ppm in blood at 37°, fed through membrane, 20 adult fleas, evaluated after 24 and 48 hours, read-out: percentage reduction in population (% activity)
Description: Twenty adult fleas of the species Ctenocephalides felis are placed into a flat, round cage, both sides of which are covered with gauze. A container whose bottom is sealed with a Parafilm membrane is placed onto the cage. In the container there is blood which comprises 5 ppm of active ingredient and which is constantly heated at 37°. The fleas take up blood through the membrane. The test is evaluated 24 and 48 hours after setting up the experiment The percentage reduction in population (% activity) is determined by comparing the number of dead fleas when using treated and untreated blood. 24 hours after the treatment, the blood is replaced by fresh blood which has also been treated.

Aphis craccivora = assay: Example B2: Activity against Aphis craccivora; conditions: 400 ppm spray on infected pea seedlings, 20° C., evaluated after 3 and 6 days, read-out: percentage reduction in population (% activity)
Description: Pea seedlings are infected with Aphis craccivora, subsequently sprayed with a spray mixture comprising 400 ppm of active ingredient and then incubated at 20° C. The test is evaluated after 3 and 6 days. The percentage reduction in population (% activity) is determined by comparing the number of dead aphids on the treated and untreated plants.

Nilaparvata lugens = assay: Example B12: Activity against Nilaparvata lugens; conditions: 504 h, 400 ppm spray on rice plants, larvae in the 2nd and 3rd stages, evaluated after 21 days, read-out: percentage reduction in population (% activity)
Description: Rice plants are sprayed with an aqueous emulsion spray mixture comprising 400 ppm of active ingredient. After the spray coating has dried on, the plants are populated with plant hopper larvae in the 2nd and 3rd stages. The test is evaluated after 21 days. The percentage reduction in population (% activity) is determined by comparing the number of surviving plant hoppers on the treated and untreated plants.

Myzus persicae = assay: Example B8: Activity against Myzus persicae; conditions: 400 ppm spray on infected pea seedlings, 20°, evaluated after 3 and 6 days, read-out: percentage reduction in population (% activity)
Description: Pea seedlings are infected with Myzus persicae, subsequently sprayed with a spray mixture comprising 400 ppm of active ingredient and then incubated at 20°. The test is evaluated after 3 and 6 days. The percentage reduction in population (% activity) is determined by comparing the number of dead aphids on the treated and untreated plants.

CN1COCN(Cc2ccc(Cl)nc2)/C1=N/[N+](=O)[O-] [Compound No. 1.2, 5-(2-Chloropyrid-5-ylmethyl)-3-methyl-4-nitroiminoperhydro-1,3,5-oxadiazine]
> 80%: inhibition at 400 ppm (Diabrotica balteata) | inhibition at 400 ppm (Heliothis virescens) | inhibition at 400 ppm (Anthonomus grandis) | inhibition at 400 ppm (Nephotettix cincticeps) | inhibition at 5 ppm (Ctenocephalides felis) | inhibition at 400 ppm (Aphis craccivora) | inhibition at 400 ppm (Nilaparvata lugens) | inhibition at 400 ppm (Myzus persicae)
